Where only a bound is given, the exact number is not on record here.

Broadly, the IC50 is the midpoint of a concentration-inhibition curve. Low readings indicate greater potency, high ones weaker potency. By MTD is commonly meant the highest dose tested that stayed within the study's limit of toxicity. Read a low MTD as a narrow tolerated range. The Inhibition is how much of the control response was suppressed. A lower Inhibition goes with a weak effect.

The target in data set [1] is Nucleic Acid. Briefly: In vitro DNA poly-dGdC binding by ethidium bromide displacement. Format: nucleic-acid assay.
A further data set relates to L1210. Description: In vitro 50% inhibitory activity against L1210 murine leukemia. Format: functional, cell-based. To be noted: Mus musculus.
Data set [2] has as its target Nucleic Acid. Description: In vitro DNA poly-dAdT binding by ethidium bromide displacement. The class given is nucleic-acid assay.
Data set [3] has as its system Mus musculus. Description: Compound was evaluated in vivo for the maximum tolerated dose (MTD) against MX-1 (breast) human solid tumors implanted in nude mice. The class given is functional.
Data set [4] relates to Mus musculus. Description: Compound was evaluated in vivo for the percent tumor growth inhibition against human solid tumors implanted in nude mice MX-1 (breast), iv. Format: functional.
Data set [5] relates to Mus musculus. Description: Compound was evaluated in vivo for the percent tumor growth inhibition against human solid tumors implanted in nude mice DLD-2 (colon), iv. Format: functional.
Data set [6] deals with Mus musculus. Description: Compound was evaluated in vivo for the maximum tolerated dose against human solid tumors implanted in nude miceLX-1 (lung). The class given is functional.
In data set [7] the test system is Mus musculus. Briefly: Compound was evaluated in vivo for the percent tumor growth inhibition against human solid tumors implanted in nude mice LX-1 (lung), iv. Format: functional.
Data set [8] concerns Mus musculus. Description: Compound was evaluated in vivo for the maximum tolerated dose against human solid tumors implanted in nude mice MX-1 (breast). The class given is functional.
In data set [9] the test system is Mus musculus. Briefly: Compound was evaluated in vivo for the maximum tolerated dose against human solid tumors implanted in nude miceDLD-2 (colon). The class given is functional.
A short description of data set [10]: Solubility in water. The class given is physicochemical. To be noted: read-out: S.
The test system of data set [11] is Mus musculus. Description: Compound was evaluated in vivo for the maximum tolerated dose against the following human solid tumors implanted in nude miceDLD-2 (colon). Format: functional.
The subject of data set [12] is Mus musculus. Briefly: Compound was evaluated in vivo for the maximum tolerated dose against the following human solid tumors implanted in nude miceMX-1 (breast). Format: functional.
The test system of data set [13] is Mus musculus. Description: Compound was evaluated in vivo for the maximum tolerated dose against the following human solid tumors implanted in nude miceLX-1 (lung). The class given is functional.
For data set [14], the system named is Mus musculus. Briefly: Compound was evaluated in vivo for the maximum tolerated dose against the following human solid tumors implanted in nude mice MX-1 (breast). Format: functional.

With `COc1ccc2cc3c4c(cccc4c2c1)C(=O)N([C@H](C)CNCCNC[C@@H](C)N1C(=O)c2cccc4cc([N+](=O)[O-])cc(c24)C1=O)C3=O`, the values for the IC50 at Nucleic Acid [1], with L1210 and on Nucleic Acid [2] were 0.13 µM, 0.25 µM and 0.8 µM, respectively.

As to `CS(=O)(=O)O.CS(=O)(=O)O.Cc1cnc2c(c1)cc1c3c(cc([N+](=O)[O-])cc32)C(=O)N([C@H](C)CNCCNC[C@@H](C)N2C(=O)c3cccc4cc([N+](=O)[O-])cc(c34)C2=O)C1=O`, the IC50 at Nucleic Acid [1] was 0.073 µM; with L1210, 0.041 µM; on Nucleic Acid [2], 0.61 µM. Moreover, the MTD with Mus musculus [3] is 6 mg/kg.

Regarding `C[C@H](CNCCNC[C@@H](C)N1C(=O)c2cccc3c2c(cc2ccc(C(F)(F)F)cc23)C1=O)N1C(=O)c2cccc3cc([N+](=O)[O-])cc(c23)C1=O`, the results for the IC50 on Nucleic Acid [1], in the data set with L1210 and at Nucleic Acid [2] were 0.17 µM, 0.45 µM and 2.55 µM, respectively.

With `C[C@H](CNCCNC[C@@H](C)N1C(=O)c2cccc3c2c(cc2cc(F)cnc23)C1=O)N1C(=O)c2cccc3cc([N+](=O)[O-])cc(c23)C1=O`, the IC50 on Nucleic Acid [1] stood at 0.059 µM; in the data set on L1210, 0.064 µM; at Nucleic Acid [2] it was 1.42 µM.

For the compound `CS(=O)(=O)O.CS(=O)(=O)O.C[C@H](CNCCNC[C@@H](C)N1C(=O)c2ccc3c4c(ccc(c24)C1=O)CC3)N1C(=O)c2cccc3cc([N+](=O)[O-])cc(c23)C1=O`, the Inhibition with Mus musculus [4] was 97%; in the data set on Mus musculus [5], 98%; in the data set on Mus musculus [7], 95%. Also, the figures for the IC50 at Nucleic Acid [1], with L1210 and at Nucleic Acid [2] were 0.11 µM, 0.075 µM and 1.57 µM, respectively. For the same compound, the MTD is 10 mg/kg in the data set with Mus musculus [6], 12.5 mg/kg with Mus musculus [8] and 12.5 mg/kg with Mus musculus [9]. Further, the solubility in data set [10] stood at 29 mg/mL.

As to `C[C@H](CNCCNC[C@@H](C)N1C(=O)c2cccc3c2c(cc2ccc(F)cc23)C1=O)N1C(=O)c2cccc3cc([N+](=O)[O-])cc(c23)C1=O`, the IC50 on Nucleic Acid [1] is 0.11 µM; in the data set with L1210, 0.31 µM; at Nucleic Acid [2], 1.51 µM.

On to `C[C@H](CNCCNC[C@@H](C)N1C(=O)c2cc([N+](=O)[O-])cc3c2c(cc2ccncc23)C1=O)N1C(=O)c2cccc3cc([N+](=O)[O-])cc(c23)C1=O`, for which the figures for the IC50 on Nucleic Acid [1], in the data set with L1210 and on Nucleic Acid [2] were 0.062 µM, 0.051 µM and 0.88 µM, respectively.

Consider `C[C@H](CNCCNC[C@@H](C)N1C(=O)c2cccc3c2c(cc2ccccc23)C1=O)N1C(=O)c2cccc3cc([N+](=O)[O-])cc(c23)C1=O`, for which the IC50 on Nucleic Acid [1] was determined as 0.97 µM; in the data set with L1210 it was 0.42 µM; on Nucleic Acid [2], 1.02 µM.

As to `CS(=O)(=O)O.CS(=O)(=O)O.C[C@H](CNCCNC[C@@H](C)N1C(=O)c2cccc3c2c(cc2ccncc23)C1=O)N1C(=O)c2cccc3cc([N+](=O)[O-])cc(c23)C1=O`, the MTD with Mus musculus [11], with Mus musculus [12] and in the data set with Mus musculus [13] was 6 mg/kg throughout. For the same compound, the IC50 is 0.088 µM on Nucleic Acid [1], 0.035 µM in the data set on L1210 and 1.2 µM at Nucleic Acid [2]. Also, the figures for the Inhibition in the data set with Mus musculus [5] and in the data set on Mus musculus [7] were 99% and 94%, respectively. The solubility in data set [10] worked out at 65 mg/mL.

`C[C@H](CNCCNC[C@@H](C)N1C(=O)c2cc([N+](=O)[O-])cc3c2c(cc2cccnc23)C1=O)N1C(=O)c2cccc3cc([N+](=O)[O-])cc(c23)C1=O`: the IC50 came to 0.085 µM on Nucleic Acid [1], 0.024 µM in the data set on L1210 and 1.57 µM at Nucleic Acid [2].

As for `CS(=O)(=O)O.CS(=O)(=O)O.C[C@H](CNCCNC[C@@H](C)N1C(=O)c2cccc3c2c(cc2cccnc23)C1=O)N1C(=O)c2cccc3cc([N+](=O)[O-])cc(c23)C1=O`, the figures for the IC50 on Nucleic Acid [1], in the data set on L1210 and on Nucleic Acid [2] were 0.073 µM, 0.25 µM and 1.08 µM, respectively. In addition, in data set [10], the solubility is > 35.6 mg/mL. The MTD with Mus musculus [3] was 6.2 mg/kg.

For `CS(=O)(=O)O.CS(=O)(=O)O.C[C@H](CNCCNC[C@@H](C)N1C(=O)c2cccc3cc([N+](=O)[O-])cc(c23)C1=O)N1C(=O)c2cccc3cc([N+](=O)[O-])cc(c23)C1=O` [BISNAFIDE DIMESYLATE], the values for the Inhibition in the data set on Mus musculus [4], in the data set on Mus musculus [5] and in the data set with Mus musculus [7] were >96%, 99% and 96%, respectively. The MTD in the data set on Mus musculus [11], in the data set with Mus musculus [13] and with Mus musculus [14] was 10 mg/kg in each case. For the same compound, the results for the IC50 on Nucleic Acid [1], in the data set with L1210 and on Nucleic Acid [2] were 0.04 µM, 0.034 µM and 1 µM, respectively. Also, the solubility in data set [10] came out at 3.5 mg/mL.
